For 47 molecules, IC50 results are on record in US8575197B2, “Pyrolinone derivative and pharmaceutical composition comprising the same” (Shionogi & Co., Ltd., priority 2008, dated 2013).

pIC50: −log10 of the molar value.

Sequence of human P2X3 receptor (P56373 whole entry): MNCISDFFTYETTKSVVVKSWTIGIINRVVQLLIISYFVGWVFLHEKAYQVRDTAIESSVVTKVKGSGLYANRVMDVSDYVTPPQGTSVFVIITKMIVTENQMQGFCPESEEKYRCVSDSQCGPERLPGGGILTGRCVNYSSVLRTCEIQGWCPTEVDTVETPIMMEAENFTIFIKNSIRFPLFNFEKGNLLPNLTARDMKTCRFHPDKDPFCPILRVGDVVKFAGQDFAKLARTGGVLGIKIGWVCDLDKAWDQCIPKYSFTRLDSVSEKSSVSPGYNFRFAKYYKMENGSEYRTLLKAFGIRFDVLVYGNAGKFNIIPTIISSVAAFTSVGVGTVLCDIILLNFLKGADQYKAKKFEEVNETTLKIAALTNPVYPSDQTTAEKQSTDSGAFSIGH

The assay addresses human P2X3 receptor (Homo sapiens (Human), UniProt P56373). The assay can be described thus: P2X3 receptor inhibition, ATP-evoked Fluo-3 calcium fluorescence (FDSS 3000). In kind it is cell-based. The note with it: C6BU-1 cell transfected with human P2X3 receptor gene; ATP-evoked Fluo-3 fluorescence. The procedure: Stably expressing cell line (C6BU-1 cell transfected with human P2X3 receptor gene (GenBank accession number Y07683)) was used. The cells were seeded in a 96-well microtiter plate at a concentration of 8000 cells/well and cultured in the medium (8.3% fetal bovine serum, 8.3% horse serum, 1% antibiotic and antifungal in DMEM) for one day at 37° C. under 5% carbon dioxide atmosphere. The medium was replaced with 4 μM Fluo-3-AM solution (pH7.5) containing 20 mM HEPES, 137 mM NaCl, 2.7 mM KCl, 0.9 mM MgCl2, 5.0 mM CaCl2, 5.6 mM D-glucose, 2.5 mM probenecid, 10% BSA, and 0.08% Pluronic F-127, and incubated at 37° C. under 5% dioxide carbon atmosphere for one hour. The plate was washed with washing buffer (20 mM HEPES, 137 mM NaCl, 2.7 mM KCl, 0.9 mM MgCl2, 5.0 mM CaCl2, 5.6 mM D-glucose, 2.5 mM probenecid, pH7.5), and each well was added with 40 μL of this buffer. The plate was placed in High-Throughput Screening System FDSS 3000 (Hamamatsu Photonics K.K.). Measurement of fluorescence intensity by FDSS 3000 was started, and 40 μL of DMSO solutions containing different concentrations of the test compound as prepared by dilution with dilution buffer (20 mM HEPES, 137 mM NaCl, 2.7 mM KCl, 0.9 mM MgCl2, 5.0 mM CaCl2, 5.6 mM D-glucose, 2.5 mM probenecid, 0.1% Pluronic F-127, pH7.5) were dispensed to each well through the built-in automatic dispenser. Five minutes after, 40 nM ATP solution (50 μL) prepared by dilution with the dilution buffer was dispensed through the built-in automatic dispenser, and the measurement of fluorescence intensity was continued for 3 min. For each well, the specific maximum fluorescence intensity was calculated as the ratio of the maximum fluorescence intensity after addition of the ATP solution to the fluorescence intensity at the starting of the measurement. […] FDSS software (Hamamatsu Photonics K.K.) was used for calculation of the specific maximum fluorescence intensity. IC50 was calculated using Microsoft™ Excel™ (Microsoft Corporation) and XLfit™ (ID Business Solutions Ltd.).
Broadly, the pIC50 is the IC50 on a negative log10 scale, so that one unit is a factor of ten. `CC(C)(C)C(=O)C1=C(O)C(=O)N(c2ccc(-c3ccon3)cc2)C1c1ccccc1OCC#N` (centres unmarked) [Compound I-103]: the negative logarithm of the IC50 (pIC50) is 6.45. Next, `CC(C)(C)C(=O)C1=C(O)C(=O)N(c2ccc(-c3ccsc3)cc2)C1c1cccc[n+]1[O-]` (centres unmarked) [Compound I-104]: 6.37; `CC(C)Oc1ccccc1C1C(C(=O)C(C)(C)C)=C(O)C(=O)N1c1ccc(-c2ccon2)cc1` (centres unmarked) [Compound I-105]: 7.01; `COc1ncccc1C1C(C(=O)C(C)(C)C)=C(O)C(=O)N1c1ccc(-c2ccsc2)nc1` (centres unmarked) [Compound I-108]: 6.72. The result for `CC(C)(C)C(=O)C1=C(O)C(=O)N(c2ccc(-c3ccon3)cc2)C1c1ccccc1S(C)(=O)=O` (centres unmarked) [Compound I-111] reads 6.20.

With `CC(C)(C)C(=O)C1=C(O)C(=O)N(c2ccc(-c3cccs3)cc2)C1c1cccc[n+]1[O-]` (centres unmarked) [Compound I-112], the pIC50 is 6.41.

As to `COC(=O)COc1ccccc1C1C(C(=O)C(C)(C)C)=C(O)C(=O)N1c1ccc(-c2cccs2)cc1` (centres unmarked) [Compound I-113], the pIC50 was 7.92.

As for `COC(=O)COc1ccccc1C1C(C(=O)C(C)(C)C)=C(O)C(=O)N1c1ccc(-c2ccsc2)cc1` (centres unmarked) [Compound I-114], the negative-log IC50 (pIC50) was 7.92. `COc1ncccc1C1C(C(=O)C(C)(C)C)=C(O)C(=O)N1c1ccc(-c2cccs2)cc1` (centres unmarked) [Compound I-115]: the pIC50 is 6.97. Consider `COc1ncccc1C1C(C(=O)C(C)(C)C)=C(O)C(=O)N1c1ccc(-c2ccsc2)cc1` (centres unmarked) [Compound I-116], for which the pIC50 was 7.11. Turning to `COc1ncccc1C1C(C(=O)C(C)(C)C)=C(O)C(=O)N1c1ccc(-c2ccco2)cc1` (centres unmarked) [Compound I-117], the pIC50 is 6.42. Next, `COc1ncccc1C1C(C(=O)C(C)(C)C)=C(O)C(=O)N1c1ccc(-c2ccoc2)cc1` (centres unmarked) [Compound I-118]: 6.55; `CC(C)(C)C(=O)C1=C(O)C(=O)N(c2ccc(-c3cccs3)cc2)C1c1ccccc1OCC(=O)O` (centres unmarked) [Compound I-119]: 7.01; `COc1ncccc1C1C(C(=O)C(C)(C)C)=C(O)C(=O)N1c1ccc(-c2cccs2)nc1` (centres unmarked) [Compound I-122]: 6.47. Next, `COCCOc1ccccc1C1C(C(=O)C(C)(C)C)=C(O)C(=O)N1c1ccc(-c2cccs2)cc1` (centres unmarked) [Compound I-123]: 7.89. For `COc1ccc(C(=O)C2=C(O)C(=O)N(c3nc4cc(OC)ccc4s3)C2c2ccccc2OCCO)cc1` (centres unmarked) [Compound I-125], the pIC50 was 6.96.

For `COc1ccc(C(=O)C2=C(O)C(=O)N(c3nc4ccc(OC)cc4s3)C2c2ccccc2OCCO)cc1` (centres unmarked) [Compound I-126], the pIC50 was 7.82. For the molecule `COCCOc1ccccc1C1C(C(=O)C(C)(C)C)=C(O)C(=O)N1c1ccc(-c2nc(C)no2)cc1` (centres unmarked) [Compound I-128], the pIC50 was 6.81. Turning to `COCCOc1ccccc1C1C(C(=O)C(C)(C)C)=C(O)C(=O)N1c1ccc(-c2noc(C)n2)cc1` (centres unmarked) [Compound I-129], the pIC50 is 7.04. Regarding `COCCOc1ccccc1C1C(C(=O)C(C)(C)C)=C(O)C(=O)N1c1ccc(SC)cc1` (centres unmarked) [Compound I-130], the pIC50 was 6.32. Next, `COc1ccc(C(=O)C2=C(O)C(=O)N(c3ccc(-c4ccon4)cc3)C2c2ccc(Br)cc2OC)cc1` (centres unmarked) [Compound I-131]: 6.60; `COCCOc1ccccc1C1C(C(=O)C(C)(C)C)=C(O)C(=O)N1c1ccc(-c2ccco2)cc1` (centres unmarked) [Compound I-132]: 7.37.

Consider `COC(=O)COc1ccccc1C1C(C(=O)C(C)(C)C)=C(O)C(=O)N1c1ccc(-c2ccon2)cc1` (centres unmarked) [Compound I-133], for which the pIC50 is 6.44.

As to `CC(C)(C)C(=O)C1=C(O)C(=O)N(c2ccc(-c3ccon3)cc2)C1c1ccccc1OCC(=O)O` (centres unmarked) [Compound I-134], the negative-log IC50 (pIC50) was 6.11. Next, `CN(C)CCOc1ccccc1C1C(C(=O)C(C)(C)C)=C(O)C(=O)N1c1ccc(-c2ccon2)cc1` (centres unmarked) [Compound I-137]: 6.21. Next, `COCCOc1ncccc1C1C(C(=O)C(C)(C)C)=C(O)C(=O)N1c1ccc(-c2ccsc2)cc1` (centres unmarked) [Compound I-138]: 7.80. Next, `COCCOc1ncccc1C1C(C(=O)C(C)(C)C)=C(O)C(=O)N1c1ccc(-c2ccon2)cc1` (centres unmarked) [Compound I-139]: 6.03; `Cc1ncccc1C1C(C(=O)C(C)(C)C)=C(O)C(=O)N1c1ccc(-c2cccs2)cc1` (centres unmarked) [Compound I-141]: 6.46. For `Cc1ncccc1C1C(C(=O)C(C)(C)C)=C(O)C(=O)N1c1ccc(-c2ccco2)cc1` (centres unmarked) [Compound I-142], the negative-log IC50 (pIC50) is 6.50. For `Cc1ncccc1C1C(C(=O)C(C)(C)C)=C(O)C(=O)N1c1ccc(-c2ccsc2)cc1` (centres unmarked) [Compound I-143], the pIC50 is 6.48. The result for `CC(C)(C)C(=O)C1=C(O)C(=O)N(c2ccc(-c3ccon3)cc2)C1c1ccccc1OCC(N)=O` (centres unmarked) [Compound I-144] reads 6.44; that for `CNC(=O)COc1ccccc1C1C(C(=O)C(C)(C)C)=C(O)C(=O)N1c1ccc(-c2ccon2)cc1` (centres unmarked) [Compound I-146], 6.14. Next, `CNC(=O)COc1ccccc1C1C(C(=O)C(C)(C)C)=C(O)C(=O)N1c1ccc(-c2ccsc2)cc1` (centres unmarked) [Compound I-147]: 7.77; `COCCOc1ncccc1C1C(C(=O)C(C)(C)C)=C(O)C(=O)N1c1ccc(-c2cccs2)cc1` (centres unmarked) [Compound I-149]: 7.82; `COCCOc1ncccc1C1C(C(=O)C(C)(C)C)=C(O)C(=O)N1c1ccc(SC)cc1` (centres unmarked) [Compound I-150]: 6.38. Next, `CC(C)(C)C(=O)C1=C(O)C(=O)N(c2ccc(-c3ccsc3)cc2)C1c1ccccc1OCC(N)=O` (centres unmarked) [Compound I-151]: 8.10. Consider `C[S+]([O-])CCOc1ccccc1C1C(C(=O)C(C)(C)C)=C(O)C(=O)N1c1ccc(-c2ccon2)cc1` (centres unmarked) [Compound I-152], for which the pIC50 is 6.66. In the case of `COCCOc1ccccc1C1C(C(=O)C(C)(C)C)=C(O)C(=O)N1c1ccc(-c2cc[nH]c2)cc1` (centres unmarked) [Compound I-153], the pIC50 is 6.67. Next, `CC(C)(C)C(=O)C1=C(O)C(=O)N(c2ccc(-c3cc[nH]c3)cc2)C1c1ccccc1OCCO` (centres unmarked) [Compound I-154]: 6.72; `COCCOc1ccccc1C1C(C(=O)C(C)(C)C)=C(O)C(=O)N1c1ccc(-c2ccoc2)cc1` (centres unmarked) [Compound I-156]: 7.49; `CC(C)C(=O)C1=C(O)C(=O)N(c2ccc(-c3ccsc3)cc2)C1c1ccccc1OCCN(C)C` (centres unmarked) [Compound I-157]: 7.60.

As to `CC(C)C(=O)C1=C(O)C(=O)N(c2ccc(-c3ccsc3)cc2)C1c1ccccc1OCCN(C)C` (centres unmarked) [Compound I-158], the pIC50 was 7.64. Regarding `COCCOc1ccccc1C1C(C(=O)C(C)C)=C(O)C(=O)N1c1ccc(-c2ccsc2)cc1` (centres unmarked) [Compound I-161], the pIC50 is 8.15. The result for `COCc1ncccc1C1C(C(=O)C(C)(C)C)=C(O)C(=O)N1c1ccc(-c2ccsc2)cc1` (centres unmarked) [Compound I-162] reads 7.39. `COCCOc1ncccc1C1C(C(=O)C(C)(C)C)=C(O)C(=O)N1c1ccc(-c2ccoc2)cc1` (centres unmarked) [Compound I-164]: the negative logarithm of the IC50 (pIC50) was 7.13. On to `CC(C)(C)C(=O)C1=C(O)C(=O)N(c2ccc(-c3ccoc3)cc2)C1c1cccnc1OCCO` (centres unmarked) [Compound I-165], for which the negative-log IC50 (pIC50) was 7.02. For the molecule `CC(C)(C)C(=O)C1=C(O)C(=O)N(c2ccc(-c3ccsc3)cc2)C1c1cccnc1OCCO` (centres unmarked) [Compound I-166], the pIC50 was 7.72.
